Data as given in EP0224596A1, “Use of dibenzocyclooctadiene lignans extracted from Schisandrae Fructus for the manufacture of a medicament for the treatment of hepatic failure” (priority 1985, dated 1986).

How the values were obtained:
[1] = system: mice with acute hepatic failure; assay: Effect on survival ratio of mice with acute hepatic failure (heat-killed P. acnes + LPS); assay type: in vivo, male balb/c strain mice; conditions: survival twenty-four hours after injection of LPS, control 7.5
Description: Seven groups of male balb/c strain mice (six weeks of age) were used. Each group included 40 mice. Acute hepatic failure was induced by the injection of 1 µg/mouse of LPS (lipopolysaccharide, Difco Laboratories) to mice that had been injected with 1 mg/mouse of heat-killed P. acnes (Propionibacterium acnes, First Department of Biochemistry in Osaka City Univ. Medical School) seven days before. The above obtained compounds (deoxyschizandrin, gomisin N, schizandrin, gomisin A, q-schizandrin and wuweizisu C) which had been suspended in 0.5% CMC (carboxymethyl cellulose, Wako Junyaku Kogyo, Co. Ltd.), was given p.o. to each group eight hours after the injection of LPS. Only vehicle (CMC) was given p.o. to one remaining group as a control group.
Survival ratio of mice was periodically examined twenty-four hours after induction of acute hepatic failure. Each dose of the above compounds and corresponding survival ratio twenty-four hours after the injection of LPS are shown in Table 1.

[2] = Acute toxicity LD50, p.o.; conditions: mouse, in vivo, po; p.o. in ddY mice
Description: And estimated clinical daily doses of the present therapeutic drugs for patients with hepatic failure are also given in Table 2.

[3] = system: rats with acute hepatic failure; assay: Survival ratio and serum GOT in acute hepatic failure induced by P. acnes + LPS; assay type: in vivo, male Wistar rats; conditions: for survival ratio: LPS on day seven, control 8.8%
Description: Three groups of male Wistar rats were used. Each group included 45 rats. Each rat in all groups was injected with 10 mg/rat of P. acnes. Four days after, gomisin A (100mg/kg, […]) obtained in Production Example 3 were suspended in 2% Tween 80/saline and administered i.p. to respectively two of three groups. Only vehicle (2% Tween 80/saline) was administered i.p. to one remaining group as a control group. All rats were injected with 50µg/rat of LPS, seven days after the injection of P. acnes. Twenty-four hours after the injection of LPS, blood samples were collected from surviving rats by heart puncture, and serum GOT activities were measured. GOT is one of amino acid transferases contained in liver cells. High serum GOT activities reflect large number of destroyed liver cells.

[4] = dose 50 mg/kg p.o. in 0.5% CMC eight hours after LPS
[5] = dose 20 mg/kg p.o. in 0.5% CMC eight hours after LPS

SMILES | Survival Ratio (%) [1, 4] [%] | LD50 [2] [mg/kg] | Survival Ratio (%) [1, 5] [%] | also measured
COc1cc2c(c(OC)c1OC)-c1c(cc(OC)c(OC)c1OC)C[C@H](C)[C@H](C)C2 [Deoxyschizandrin, deoxyschizandrin] | 55 | 2000 | – | –
COc1cc2c(c(OC)c1OC)-c1c(cc3c(c1OC)OCO3)CC(C)C(C)(O)C2 (centres unmarked) [Gomisin A, gomisin A] | – | 777 | – | Survival Ratio (%) ([1]; dose 10 mg/kg p.o. in 0.5% CMC eight hours after LPS): 80%; survival ratio ([3]; 50mg/kg i.p. in 2% Tween 80/saline four days after P. acnes): 83.3%; survival ratio ([3]; 100mg/kg i.p. in 2% Tween 80/saline four days after P. acnes): 100%; average serum GOT activities ([3]; 100mg/kg i.p., surviving rats, twenty-four hours after injection of LPS, control 7000 IU): 140 IU
COc1cc2c(c(OC)c1OC)-c1c(cc3c(c1OC)OCO3)CC(C)C(C)C2 (centres unmarked) [Gomisin N, gomisin N] | – | 2000 | 80 | –
COc1cc2c(c(OC)c1OC)-c1c(cc(OC)c(OC)c1OC)C[C@](C)(O)[C@@H](C)C2 [Schizandrin, schizandrin] | 50 | 1450 | – | –
COc1c2c(cc3c1-c1c(cc4c(c1OC)OCO4)CC(C)C(C)C3)OCO2 (centres unmarked) [Wuweizisu C] | – | 2000 | 70 | –
COc1cc2c(c(OC)c1OC)-c1c(cc3c(c1OC)OCO3)CC(C)C(C)C2 (centres unmarked) [γ-Schizandrin, γ-schizandrin] | 60 | – | – | –
